Molecular target: T1, KRAS G12C and cRAF interaction (Homo sapiens, UniProt P01116, C118S/C51S/C80L/G12C)
T1 construct: truncated version comprising amino acids 1-169
Experiment: Inhibition of KRAS G12C and cRAF binding (AlphaScreen)
Format: biochemical
Conditions: KRAS G12C (Cys-light, aa 1-169) preloaded with GMPPNP, cRaf RBD (aa 50-131), 2 hours incubation
Outline: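 Biotin-AviTag KRAS G12C (Cys-light C51S/C80L/C118S, aa 1-169, GMPPNP-loaded; 0.5 nM final)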

T1 sequence (P01116 1-169 isoform P01116-2 G12C/C51S/C80L/C118S): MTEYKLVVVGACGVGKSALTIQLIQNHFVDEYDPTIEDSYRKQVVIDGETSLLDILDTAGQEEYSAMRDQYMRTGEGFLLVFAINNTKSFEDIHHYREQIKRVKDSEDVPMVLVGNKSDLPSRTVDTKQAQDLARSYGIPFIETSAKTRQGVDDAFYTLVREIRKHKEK

IC50 [nM]	SMILES
≥ 500	Cc1nccc(/C=C/C(=O)N2CCN(c3nc(OC[C@@]45CCCN4C[C@H](F)C5)nc4c(F)c(-c5ccccc5C(F)F)ncc34)CC23COC3)n1 [Example 94]
< 10	O=C(/C=C/CN1[C@@H]2CC[C@H]1COC2)N1CCN(c2nc(OC[C@@]34CCCN3C[C@H](F)C4)nc3c(F)c(-c4cccc(Cl)c4C(F)(F)F)ncc23)CC12COC2 [Example 56, (E)-4-((1R,5S)-3-oxa-8-azabicyclo[3.2.1]octan-8-yl)-1-(8-(7-(3-chloro-2-(trifluoromethyl)phenyl)-8-fluoro-2-(((2R,7aS)-2-fluorotetrahydro-1H-pyrrolizin-7a(5H)-yl)methoxy)pyrido[4,3-d]pyrimidin-4-yl)-2-oxa-5,8-diazaspiro[3.5]nonan-5-yl) but-2-en-1-one]
